The source of these data is the NIST ThermoML archive (doi:10.1021/je200853g).

± gives the expanded uncertainty stated by the source.

A short description of series [1]: Molar enthalpy of transition or fusion. To be noted: Crystal; DSC.
For series [2] the following is noted: Crystal; DTA.

Consider `Cc1ncc(CO)c(CO)c1O` [5-hydroxy-6-methyl-3,4-pyridinedimethanol], for which the “Molar enthalpy of transition or fusion” value in series [1] is 7.45 ± 0.217 kcal/mol. In addition, in series [2], the Triple point temperature was 433.18 ± 0.5 K.
